Reference: article PMC11491390, “Inhibition of HCN1 currents by norquetiapine, an active metabolite of the atypical anti-psychotic drug quetiapine” (Frontiers in Pharmacology, 2024)

Target: T1, HCN1 (Mus musculus, UniProt O88704)
T1 construct: full-length HCN1
Experiment: two-electrode voltage clamp, channel expressed in Xenopus laevis oocytes (shift in V1/[…])
Format: cell-based

T1 sequence (O88704 whole entry): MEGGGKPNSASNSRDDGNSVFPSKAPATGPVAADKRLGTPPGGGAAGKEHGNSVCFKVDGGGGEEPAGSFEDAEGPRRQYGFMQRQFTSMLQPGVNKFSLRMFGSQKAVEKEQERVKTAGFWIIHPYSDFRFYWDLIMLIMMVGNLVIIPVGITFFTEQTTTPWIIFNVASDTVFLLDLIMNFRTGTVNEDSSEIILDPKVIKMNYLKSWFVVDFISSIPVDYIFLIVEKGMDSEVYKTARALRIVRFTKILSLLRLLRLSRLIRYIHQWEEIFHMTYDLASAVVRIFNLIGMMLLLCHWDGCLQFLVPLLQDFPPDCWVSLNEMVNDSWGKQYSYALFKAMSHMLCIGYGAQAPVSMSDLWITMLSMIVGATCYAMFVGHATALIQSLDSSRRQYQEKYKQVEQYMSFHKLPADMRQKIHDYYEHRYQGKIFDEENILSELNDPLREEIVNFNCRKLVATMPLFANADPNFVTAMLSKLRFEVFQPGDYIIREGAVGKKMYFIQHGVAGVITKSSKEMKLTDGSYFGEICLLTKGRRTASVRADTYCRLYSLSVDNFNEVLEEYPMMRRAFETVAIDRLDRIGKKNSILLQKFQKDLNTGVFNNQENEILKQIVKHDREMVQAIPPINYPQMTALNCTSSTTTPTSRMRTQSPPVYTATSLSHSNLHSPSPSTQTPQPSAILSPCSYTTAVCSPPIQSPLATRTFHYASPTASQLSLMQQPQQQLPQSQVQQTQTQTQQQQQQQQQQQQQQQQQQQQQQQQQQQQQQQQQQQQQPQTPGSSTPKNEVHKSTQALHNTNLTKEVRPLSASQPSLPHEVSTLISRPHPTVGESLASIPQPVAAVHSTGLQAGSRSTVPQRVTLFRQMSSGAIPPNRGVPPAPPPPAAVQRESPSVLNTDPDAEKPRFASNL

**Q.** Which IC50 does the source give for c1ccc2c(c1)N=C(N1CCNCC1)c1ccccc1S2 [NQTP, norquetiapine] here?
**A.** 13.9 ± 0.8 µM
